Measurements reported in patent US11958861B2, “Spirocyclic lactams as JAK2 V617F inhibitors” (Incyte Corporation, priority 2021, dated 2024).
Counter-ions that a name gives are not always drawn.

Legend:
[1] = target: T1, pseudo-kinase domain (JH2, amino-acids 536-812) of human V617F mutant JAK2 (Homo sapiens, UniProt O60674, F794H/V617F/W659A/W777A); assay: JAK2 LanthaScreen JH2-V617F Binding Assay; conditions: 1 hour at 25° C.
T1 construct: pseudo-kinase domain (JH2, amino-acids 536-812 with 3 surface mutations W659A, W777A, F794H); purchased BPS Bioscience 79498; host or cells: baculovirus expression system
T1 sequence (O60674 536-812 V617F/W659A/W777A/F794H): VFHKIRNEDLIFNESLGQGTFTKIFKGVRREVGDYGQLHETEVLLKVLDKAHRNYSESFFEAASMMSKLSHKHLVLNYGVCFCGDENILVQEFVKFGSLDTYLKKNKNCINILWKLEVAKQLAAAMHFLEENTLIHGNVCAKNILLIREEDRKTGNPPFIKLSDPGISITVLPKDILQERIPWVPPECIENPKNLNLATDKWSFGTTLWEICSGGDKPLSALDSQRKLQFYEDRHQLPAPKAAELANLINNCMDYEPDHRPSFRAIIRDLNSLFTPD
Procedure: Example C. JAK2 LanthaScreen JH2-V617F Binding Assay
(§1) JAK2 JH2-V617F binding assay utilizes pseudo-kinase domain (JH2, amino-acids 536-812 with 3 surface mutations W659A, W777A, F794H) of human V617F mutant JAK2 expressed as C-terminal His-Avi-tagged, biotinylated protein in a baculovirus expression system (BPS Bioscience, Catalog #79498). The assay was conducted in black 384-well polystyrene plates in a final reaction volume of 20 μL. JAK2 JH2-V617F (0.26 nM) was incubated with compounds (100 nL serially diluted in DMSO) in the presence of 50 nM Fluorescent JAK2-JH2 Tracer (MedChem Express Catalog #HY-102055) and 0.25 nM Streptavidin-Tb cryptate (Cisbio Part #610SATLB) in assay buffer (50 mM Tris, pH=7.5, 10 mM MgCl2, 0.01% Brij-35, 0.1% BSA, 1 mM EGTA, 5% Glycerol and 5 mM DTT). Non-specific binding was accessed in the presence of 2 mM ATP. After incubation for 1 hour at 25° C., LanthaScreen signals were read on a PHERAstar FS plate reader (BMG LABTECH). Data was analyzed with IDBS XLfit and GraphPad Prism 5.0 software using a four parameter dose response curve to determine IC50 for each compound.

[2] = target: T2, catalytic domain (JH1, amino acids 826-1132) of human JAK2 (Homo sapiens, UniProt O60674); assay: JAK2 LanthaScreen JH1 Binding Assay; conditions: 2 hours at 25° C.
T2 construct: catalytic domain (JH1, amino acids 826-1132) of human JAK2; purchased Carna Biosciences 08-445-20N; host or cells: baculovirus expression system
T2 sequence (O60674 826-1132): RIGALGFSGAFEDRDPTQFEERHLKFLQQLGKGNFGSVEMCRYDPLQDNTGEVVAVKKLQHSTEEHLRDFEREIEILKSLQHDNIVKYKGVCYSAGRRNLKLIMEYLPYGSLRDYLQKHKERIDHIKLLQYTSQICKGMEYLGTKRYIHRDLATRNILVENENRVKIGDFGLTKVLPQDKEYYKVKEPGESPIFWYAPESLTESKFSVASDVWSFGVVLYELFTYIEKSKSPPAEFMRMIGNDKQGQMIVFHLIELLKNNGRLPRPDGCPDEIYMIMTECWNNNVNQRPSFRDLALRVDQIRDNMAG
Procedure: Example A. JAK2 LanthaScreen JH1 Binding Assay
JAK2 JH1 binding assay utilizes catalytic domain (JH1, amino acids 826-1132) of human JAK2 expressed as N-terminal FLAG-tagged, biotinylated protein in a baculovirus expression system (Carna Biosciences, Product #08-445-20N). The assay was conducted in black 384-well polystyrene plates in a final reaction volume of 20 μL. JAK2 JH1 (1.5 nM) was incubated with compounds (100 nL serially diluted in DMSO) in the presence of 50 nM Fluorescent JAK2-JH1 Tracer and 0.5 nM Streptavidin-Tb cryptate (Cisbio Part #610SATLB) in assay buffer (50 mM Tris, pH=7.5, 10 mM MgCl2, 0.01% Brij-35, 0.1% BSA, 1 mM EGTA, 5% Glycerol and 5 mM DTT). Non-specific binding was accessed in the presence of 2 mM ATP. After incubation for 2 hours at 25° C., LanthaScreen signals were read on a PHERAstar FS plate reader (BMG LABTECH). Data was analyzed with IDBS XLfit and GraphPad Prism 5.0 software using a four parameter dose response curve to determine IC50 for each compound.

[3] = target: T3, pseudo-kinase domain (JH2, amino-acids 536-812) of human Wild Type JAK2 (Homo sapiens, UniProt O60674, F794H/W659A/W777A); assay: JAK2 LanthaScreen JH2-WT Binding Assay; conditions: 1 hour at 25° C.
T3 construct: pseudo-kinase domain (JH2, amino-acids 536-812 with 3 surface mutations W659A, W777A, F794H); purchased BPS Bioscience 79463; host or cells: baculovirus expression system
T3 sequence (O60674 536-812 W659A/W777A/F794H): as the sequence (O60674 536-812 V617F/W659A/W777A/F794H) above, with F82V counted along it
Procedure: Example B. JAK2 LanthaScreen JH2-WT Binding Assay
as §1, with “JH2-WT” for “JH2-V617F”, “Wild Type” for “V617F mutant”, “#79463).” for “#79498).”, “JH2-WT (0.145” for “JH2-V617F (0.26”

[4] = target: T4, catalytic domain (JH1, amino acids 808-1132) of human JAK2 (Homo sapiens, UniProt O60674); assay: JAK2 HTRF Enzyme Activity Assay; assay type: biochemical; conditions: ATP 30 μM, read-out: ENZ 30UMATP
T4 construct: catalytic domain (JH1, amino acids 808-1132) of human JAK2; His (N); purchased BPS Bioscience 40450; host or cells: baculovirus expression system
T4 sequence (O60674 808-1132): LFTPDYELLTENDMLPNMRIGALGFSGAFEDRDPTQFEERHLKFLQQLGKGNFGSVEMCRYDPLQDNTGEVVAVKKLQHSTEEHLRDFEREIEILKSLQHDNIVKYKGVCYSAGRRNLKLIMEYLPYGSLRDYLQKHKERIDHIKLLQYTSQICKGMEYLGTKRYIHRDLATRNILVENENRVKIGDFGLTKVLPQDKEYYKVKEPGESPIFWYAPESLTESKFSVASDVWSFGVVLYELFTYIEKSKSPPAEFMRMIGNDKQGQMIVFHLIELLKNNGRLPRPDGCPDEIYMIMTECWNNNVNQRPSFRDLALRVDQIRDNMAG
Procedure: Example D. JAK2 HTRF Enzyme Activity Assay
JAK2 enzyme activity assays utilize catalytic domain (JH1, amino acids 808-1132) of human JAK2 expressed as N-terminal His-tagged protein in a baculovirus expression system (BPS Bioscience, Catalog #40450). The assays was conducted in black 384-well polystyrene plates in a final reaction volume of 20 μL. JAK2 (0.015 nM) was incubated with compounds (100 nL serially diluted in DMSO) in the presence of ATP (30 μM or 1 mM) and 500 nM Biotin-labeled […] (SEQ ID NO.: 1) peptide (BioSource International, custom synthesis) in assay buffer (50 mM Tris, pH=7.5, 10 mM MgCl2, 0.01% Brij-35, 0.1% BSA, 1 mM EGTA, 5% Glycerol and 5 mM DTT) for 60 minutes at 25° C. The reactions were stopped by the addition of 10 μL of detection buffer (50 mM Tris, pH 7.8, 0.5 mg/mL BSA, 150 mM NaCl), supplemented with EDTA, LANCE Eu-W1024 anti-phosphotyrosine (PY20), (PerkinElmer, Catalog #AD0067) and Streptavidin SureLight APC (PerkinElmer Catalog #CR130-100), for a final concentration of 15 mM, 1.5 nM and 75 nM, respectively. HTRF signals were read after 30 minutes incubation at room temperature on a PHERAstar FS plate reader (BMG LABTECH). Data was analyzed with IDBS XLfit and GraphPad Prism 5.0 software using a four parameter dose response curve to determine IC50 for each compound.

“1-(Ethylsulfonyl)-2″-(3-methoxy-1-methyl-1H-pyrazol-4-yl)-6″-methyl-1″-(1-(methyl-d3)-1H-indazol-5-yl)-3″,6″-dihydro-7″H-dispiro[azetidine-3,1′-cyclobutane-3′,8″-dipyrrolo[2,3-b:3′,2′-d]pyridin]-7″-one, trifluoroacetate salt [Example 99]” gave an IC50 [1] of no more than 0.1 µM, an IC50 [2] greater than 2.5 µM and an IC50 [3] of no more than 0.1 µM.

“2′-(1-(1-Cyclopropylethyl)-1H-pyrazol-4-yl)-1-(ethylsulfonyl)-6′-(methyl-d3)-r-(1-methyl-1H-indazol-5-yl)-3′,6′-dihydro-7′H-spiro[azepane-4,8′-dipyrrolo[2,3-b:3′,2′-d]pyridin]-7′-one, trifluoroacetate salt [Example 104]” showed an IC50 [1] of no more than 0.1 µM, an IC50 [2] of 0.1 to 0.5 µM and an IC50 [3] of no more than 0.1 µM. The IC50 [4] was 0.1 to 0.5 µM.

`CN1C(=O)C2(CCOC2)c2c1cnc1[nH]c(-c3ccc(CN4CCC(S(C)(=O)=O)CC4)cc3)c(-c3ccccc3)c21` (racemic) [Example 2, 6-Methyl-2-(4-((4-(methylsulfonyl)piperidin-1-yl)methyl)phenyl)-1-phenyl-3,4′,5′,6-tetrahydro-2′H,7H-spiro[dipyrrolo[2,3-b:3′,2′-d]pyridine-8,3′-furan]-7-one trifluoroacetate salt] was tested, and the IC50 [1] was no more than 0.1 µM, the IC50 [2] was greater than 2.5 µM and the IC50 [3] was no more than 0.1 µM. For the same compound, the IC50 [4] was greater than 2.5 µM.

`CN1C(=O)C2(CCN(C(=O)CC3CCOCC3)C2)c2c1cnc1[nH]c(-c3ccc(CN4CCC(S(C)(=O)=O)CC4)cc3)c(-c3ccccc3)c21` (racemic) [Example 12, 6-Methyl-2-(4-((4-(methylsulfonyl)piperidin-1-yl)methyl)phenyl)-1-phenyl-1′-(2-(tetrahydro-2H-pyran-4-yl)acetyl)-3,6-dihydro-7H-spiro[dipyrrolo[2,3-b:3′,2′-d]pyridine-8,3′-pyrrolidin]-7-one trifluoroacetate salt] showed an IC50 [1] of 0.1 to 0.5 µM, an IC50 [2] greater than 2.5 µM and an IC50 [3] of 0.1 to 0.5 µM. It also gave an IC50 [4] greater than 2.5 µM.

Compound `CC(CC#N)n1cc(-c2ccc(-c3c(-c4cnn(C)c4)[nH]c4ncc5c(c34)C3(CCCC3)C(=O)N5C)cc2)cn1` (racemic) [Example 14, 3-(4-(4-(6′-Methyl-2′-(1-methyl-1H-pyrazol-4-yl)-7′-oxo-6′,7′-dihydro-3′H-spiro[cyclopentane-1,8′-dipyrrolo[2,3-b:3′,2′-d]pyridin]-1′-yl)phenyl)-1H-pyrazol-1-yl)butanenitrile trifluoroacetate salt] has an IC50 [1] of 0.1 to 0.5 µM, an IC50 [2] greater than 2.5 µM and an IC50 [3] of no more than 0.1 µM. It also gave an IC50 [4] greater than 2.5 µM.

In the case of `[2H]C([2H])([2H])n1ncc2cc(-c3c(-c4cnn(C)c4)[nH]c4ncc5c(c34)[C@@]3(CC[C@H](NC(=O)C4(CC(N)=O)CCC4)C3)C(=O)N5C)ccc21` (racemic) [Example 100, trifluoroacetate salt], the IC50 [1] is reported as 0.5 to 1.25 µM, the IC50 [2] is reported as greater than 2.5 µM and the IC50 [3] is reported as 0.5 to 1.25 µM.

With `CO[C@H]1CC[C@@](CC#N)(N2CCC3(CC2)C(=O)N(C)c2cnc4[nH]c(-c5cnn(C)c5)c(-c5ccc6c(cnn6C)c5)c4c23)CC1` (single isomer, unassigned) [Example 75b, 2-(4-Methoxy-1-(6-methyl-1-(1-methyl-1H-indazol-5-yl)-2-(1-methyl-1H-pyrazol-4-yl)-7-oxo-6,7-dihydro-3H-spiro[dipyrrolo[2,3-b:3′,2′-d]pyridine-8,4′-piperidin]-1′-yl)cyclohexyl)acetonitrile] the IC50 [1] was no more than 0.1 µM, the IC50 [2] was 0.5 to 1.25 µM and the IC50 [4] was 0.5 to 1.25 µM.

`O=C(O)C(F)(F)F.[2H]C([2H])([2H])n1ncc2cc(-c3c(-c4cnn5c4OCCC5)[nH]c4ncc5c(c34)C3(CC4(CN(S(=O)(=O)CC)C4)C3)C(=O)N5C)ccc21` [Example 98, 2″-(6,7-Dihydro-5H-pyrazolo[5,1-b][1,3]oxazin-3-yl)-1-(ethylsulfonyl)-6″-methyl-1″-(1-(methyl-d3)-1H-indazol-5-yl)-3″,6″-dihydro-7″H-dispiro[azetidine-3,1′-cyclobutane-3′,8″-dipyrrolo[2,3-b:3′,2′-d]pyridin]-7″-one, trifluoroacetate salt] gave an IC50 [1] of no more than 0.1 µM, an IC50 [2] greater than 2.5 µM and an IC50 [3] of no more than 0.1 µM.

`O=C(O)C(F)(F)F.[2H]C([2H])([2H])n1ccc(-c2[nH]c3ncc4c(c3c2-c2ccc3c(cnn3C)c2)C2(CC3(CCN(C(=O)CCC)CC3)C2)C(=O)N4C)c1` [Example 101, 1″-Butyryl-6-methyl-1-(1-methyl-1H-indazol-5-yl)-2-(1-(methyl-d3)-1H-pyrrol-3-yl)-3,6-dihydro-7H-dispiro[dipyrrolo[2,3-b:3′,2′-d]pyridine-8,1′-cyclobutane-3′,4″-piperidin]-7-one, trifluoroacetate salt] showed an IC50 [1] of no more than 0.1 µM, an IC50 [2] of 1.25 to 2.5 µM and an IC50 [3] of no more than 0.1 µM.

In the case of `O=C(O)C(F)(F)F.[2H]C([2H])([2H])n1ccc(-c2[nH]c3ncc4c(c3c2-c2ccc3c(cnn3C([2H])([2H])[2H])c2)C2(CC3(CCN(C(=O)CCC)CC3)C2)C(=O)N4C)c1` [Example 102, 1″-Butyryl-6-methyl-1-(1-(methyl-d3)-1H-indazol-5-yl)-2-(1-(methyl-d3)-1H-pyrrol-3-yl)-3,6-dihydro-7H-dispiro[dipyrrolo[2,3-b:3′,2′-d]pyridine-8,1′-cyclobutane-3′,4″-piperidin]-7-one, trifluoroacetate salt], the IC50 [1] is reported as no more than 0.1 µM, the IC50 [2] is reported as greater than 2.5 µM and the IC50 [3] is reported as no more than 0.1 µM.
